Results reported in US20040018151A1, “Use of anandamide/cannabinoid receptor/acceptor agonists in als screening and treatment methods” (priority 2002, published 2004).

Assays:
CB1 cannabinoid receptor = CB1 cannabinoid receptor (Homo sapiens, UniProt P21554); settings: background statement; cited from earlier work
CB1 = CB1 (Homo sapiens, UniProt P21554); settings: background statement; cited from earlier work
[1] = test system: mouse primary spinal cord cultures; experiment: TBH oxidative damage in mixed spinal cord cultures (LDH release)
ALS patients = experiment: Open label crossover escalating dose study of Marinol in ALS patients; format: in vivo, humans
[2] = test system: primary neuronal cultures prepared from mouse spinal cord; experiment: Kainate excitotoxicity in spinal cord neuronal cultures; format: cell-based; settings: previously observed
[3] = test system: primary neuronal cultures prepared from mouse spinal cord; settings: Abood et al, Neurosci Lett 309:197-201, 2001; cited from earlier work
[4] = test system: hSOD1^G93A mice (ALS mice); experiment: Rotarod endurance (disease progression) in hSOD1^G93A mice; format: in vivo; settings: for Increase of A50% (age at which endurance declined to 50%) per 10 mg/kg of THC; A.(dose) estimate: nonlinear mixed effects model, rotarod; for Days from 9 to 1 min / Days to 50% endurance: prediction based on model
Experimental: (§1) hSOD1^G93A mice (ALS mice) were administered Δ^9-THC (5 and 10 mg/kg body weight) or vehicle beginning at 60 days of age, i.e., prior to onset of disease signs. The earliest clinical signs of disease observed were tremors and shaking of their limbs when mice were suspended briefly in the air by their tails. These signs were never seen in non-transgenic littermates, but were always seen in hSOD^G93A mice after 75 days. In a subsequent set of experiments, mice were administered 20 mg/kg Δ^9-THC beginning on day 75 when tremors were first observed, i.e., after onset of disease signs. Mice were evaluated on a rotarod to follow disease progression.
In order to assess the effect of Δ^9-THC on disease progression, a logistic response curve was fit to the endurance time for each mouse using a nonlinear mixed effects model. For these experiments, each mouse was assessed on the rotarod at 5 and 10 rpm. […] A50% increased 3.3 days (±1.1 day) per 10 mg/kg of THC (2-sided p=0.003). In other words, disease progression as assessed by rotarod performance was delayed 3.3 days in the 10 mg/kg and 6.6 days in the 20 mg/kg group as compared to the vehicle treated animals. This represents a 3% increase in motor performance endurance in the 10 mg/kg group and a 6% increase in the 20 mg/kg group. Note that the increase in the 20 mg/kg group was not affected by the delay in initiation of treatment.
Animals were assessed later in the disease by testing them at the slower rotarod speed (5 rpm). In the data analysis, A50% increased 6.5 days (±0.4 day) when changing from 10 rpm to 5 rpm. However, the rate of decline increased by a factor of 2 in going from 10 rpm to 5 rpm. This rate of decline can also be understood by expressing it as number of days to decline from 9 minutes to 1-minute endurance, based on the fitting equation. At 10 rpm, it took 17.1 (±1.76) days to decline from 9 to 1 minute vs. 8.55 (±0.88) days at 5 rpm. […] FIG. 1a. Δ^9-THC delays progression of disease in hSOD1^G93A mice. Motor function was tested weekly on the rotarod at 10 and 5 rpm. The decline in endurance over time for each animal at 10 rpm is shown in (a). Mouse numbers 1-13 correspond to vehicle treated animals, numbers 1001-1008 correspond to the 10 mg/kg Δ^9-THC treatment group, and 2001-2009 correspond to the 20 mg/kg Δ^9-THC treatment group.
FIG. 1b Logistic response curves showing declines based on fitting a logistic model to observed data. Solid curves are tests at 10 rpm, dashed curves for 5 rpm. The three curves for each rpm are for doses of 0 (vehicle, blue), 10 (mg/kg Δ^9-THC, green) and 20 (mg/kg Δ^9-THC, red). Parameters for curves are based on a nonlinear mixed effects model given by Time=10/(1+exp((Age-A)/B)).

[5] = test system: hSOD1^G93A mice (ALS mice); experiment: Behaviour and body weight of treated hSOD1^G93A mice; format: in vivo
Experimental: as §1

rodents = experiment: Motor toxicity in rodents; format: in vivo; settings: intraperitoneally
Experimental: For THC the effective dose range should be 10 mg-70 mg/kg/day intraperitoneally in rodents. Motor toxicity is seen at 84 mg/kg/day. An estimate of effective dose range in rodents can be obtained from comparison to other measures of bioactivity of these compounds, e.g. in analgesia and/or anticonvulsant activity. […] However, other routes of administration may include intravenous, inhaled or sub-lingual, formulations such as in a patch or a spray, whereby the doses would most likely be different (e.g. 100 mg/day in a patch) in both rodents and humans.

[6] = test system: hSOD1^G93A mice (ALS mice); experiment: Survival of hSOD1^G93A mice; format: in vivo
Experimental: as §1
In these experiments, the treatment effect was to slow the progression of disease (FIG. 1b). Furthermore, treatment with Δ^9-THC improved survival. […] Treatment with 10 mg/ kg Δ^9-THC extended mean survival from 125.9±1.6 days (vehicle, n=15) to 131.8±2.4 days (Δ^9-THC, n=8, p<0.05)(FIG. 2a, c). This represents a […] increase in survival in the 10 mg/ kg Δ^9-THC-treated group. At a (delayed) dose of 20 mg/kg the increase in mean survival was 6.4 days (5.1%).
FIG. 2. Δ^9-THC extends survival in hSOD1^G93A mice. Cumulative survival in hSOD1^G93A mice treated with 10 mg/kg Δ^9-THC (a) or 20 mg/kg Δ^9-THC (b). Mortality of hSOD1^G93A mice treated with Δ^9-THC or vehicle (c).

[7] = rpm 10, dose 10 as printed (r11)

Chain of CB1 cannabinoid receptor (P21554 whole entry): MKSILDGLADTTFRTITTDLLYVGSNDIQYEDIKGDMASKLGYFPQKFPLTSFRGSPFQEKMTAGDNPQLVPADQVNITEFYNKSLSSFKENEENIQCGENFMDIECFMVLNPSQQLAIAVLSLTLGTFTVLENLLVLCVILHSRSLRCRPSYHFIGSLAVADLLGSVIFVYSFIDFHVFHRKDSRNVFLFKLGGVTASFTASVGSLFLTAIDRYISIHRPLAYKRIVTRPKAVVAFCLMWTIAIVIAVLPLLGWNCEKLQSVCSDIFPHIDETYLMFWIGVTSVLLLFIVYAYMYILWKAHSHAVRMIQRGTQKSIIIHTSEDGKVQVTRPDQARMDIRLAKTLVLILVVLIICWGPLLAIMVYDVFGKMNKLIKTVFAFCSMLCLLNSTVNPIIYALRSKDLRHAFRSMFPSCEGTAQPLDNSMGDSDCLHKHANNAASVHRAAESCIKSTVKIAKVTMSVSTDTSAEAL
Chain of CB1 (P21554 whole entry): as above

**Q.** With `CCCCCc1cc(O)c2c(c1)OC(C)(C)C1CCC(CO)=CC21` (stereo not shown) [11-hydroxy-THC] as the compound, how does the “Agonist potency/activity relative to THC” value (CB1 cannabinoid receptor) read?
**A.** more active than its parent

**Q.** With `CCCCCCC(C)(C)c1cc(O)c2c(c1)OC(C)(C)[C@@H]1CC=C(CO)C[C@@H]21` [HU-210] as the compound, how does the “Activity at central (CB1) receptor” value (CB1 cannabinoid receptor) read?
**A.** retains activity at central (CB1)

**Q.** For `CCCCCCC(C)(C)c1cc(O)c2c(c1)OC(C)(C)[C@H]1CC=C(CO)C[C@H]21` [HU-211, dexanabinol], which “Activity at central (CB1) receptor” value (CB1 cannabinoid receptor) is on record?
**A.** inactive

**Q.** Which “Binding to CB1” value (CB1) does the source give for `CCCCCCCC/C=C\CCCCCCCC(N)=O` [Oleamide] here?
**A.** does not bind CB1

**Q.** Which “Agonist potency/activity relative to THC” value (CB1 cannabinoid receptor) does the source give for `CCCc1cc(O)c2c(c1)OC(C)(C)[C@@H]1CCC(C)=C[C@@H]21` [Propyl-THC] here?
**A.** less agonist activity than THC

**Q.** With `Cc1c(C(=O)NN2CCCCC2)nn(-c2ccc(Cl)cc2Cl)c1-c1ccc(Cl)cc1` [SR141716A] as the compound, how does the “Block of the antioxidant effect of Δ^9-THC” value ([1]; 1 μM SR141716A plus 0.5 μM Δ^9-THC, TBH) read?
**A.** not blocked

**Q.** What does the source list for `CCCCCc1cc(O)c2c(c1)OC(C)(C)[C@@H]1CCC(C)=C[C@@H]21` [Δ^9-THC, delta-9-tetrahydrocannabinol]?
**A.** Patients showing reduction in rate of decline of ALSFRS (ALS patients; 3 month trial period): 11 of the 19; Serious adverse events (ALS patients; 25 patients treated, one death unrelated to drug effect): no other serious adverse events; Symptomatic benefits (ALS patients; ALS patients while taking Marinol): Symptomatic benefits were seen in insomnia, appetite, fasciculations and spasticity; Tolerability (ALS patients; ALS patients, oral, escalating dose 2.5-10 mg, 3 months): well tolerated; Tolerability (ALS patients; humans, 10 mg/day orally): well tolerated; Average rate of decline (ALSFRS) (ALS patients; when patients were taking drug): 27%; Cytotoxicity ([1]; 200 μM TBH for 5 hours in the presence of 0.5 μM Δ^9-THC, TBH alone 74 (±14) %, n=4): 28 (±8) %; Protection of spinal cord neurons against direct excitotoxin (kainate) exposure, compared with NBQX [2]: as effective as the anti-excitotoxic compound NBQX; Kainate toxicity [3]: effectively reduce kainate toxicity; Delay of disease progression as assessed by rotarod performance vs vehicle ([4]; 10 mg/kg): 3.3 days; Increase in motor performance endurance ([4]; 10 mg/kg): 3%; Increase in motor performance endurance ([4]; 20 mg/kg): 6%; Delay of disease progression as assessed by rotarod performance vs vehicle ([4]; 20 mg/kg, from day 75): 6.6 days; Increase of A50% (age at which endurance declined to 50%) per 10 mg/kg of THC; A.(dose) estimate [4]: 3.29 days; Increase of A50% (age at which endurance declined to 50%) per 10 mg/kg of THC; A.(dose) estimate ([4]; listed as THC): 3.3 days; Days from 9 to 1 min ([4]; rpm 5, dose 10): 8.55 days; Days to 50% endurance ([4]; rpm 5, dose 10): 109.8 days; Days from 9 to 1 min ([4]; rpm 5, dose 20): 8.55 days; Days to 50% endurance ([4]; rpm 5, dose 20): 113.1 days; Days from 9 to 1 min ([4]; rpm 10, dose 10 (r10)): 17.10 days; Days to 50% endurance ([4]; rpm 10, dose 10 (r10)): 103.3 days; Days from 9 to 1 min [4, 7]: 17.10 days; Days to 50% endurance [4, 7]: 106.6 days; Weights, difference between treatment groups ([5]; 5, 10, 20 mg/kg vs vehicle): no significant difference in weights; Overt behavioral changes ([5]; any of the doses given (5, 10, 20 mg/kg)): No overt behavioral changes; Dose at which motor toxicity is seen (rodents): 84 mg/kg/day; Survival ([6]; 5 mg/kg): trend towards increased survival; Mean survival ([6]; 10 mg/kg, n=8, vehicle 125.9±1.6 days): 131.8 ± 2.4 days
